Consider 4 compounds from patent US20040068005A1, “Pharmaceutical combinations” (priority 2000, published 2004).

Holding throughout (format): in vivo, New Zealand white rabbits
The subject of data set [1] is hypercholesterolaemic, insulin resistant conscious rabbits. The data set can be described thus: Ventricular pacing-induced myocardial ischaemia (ST-segment elevation), hypercholesterolaemic rabbits. Conditions: for ST-segment elevation / intracavitary ST-segment elevation / ischaemic changes produced by VOP: hypercholesterolaemic; for ST-segment elevation: insulin resistant rabbit; for intracavitary ST-segment elevation / ischaemic changes produced by VOP: insulin resistant rabbits, drug alone. On the procedure: (§1) The experiments are carried out with adult, male New Zealand white rabbits, weighing 3.0-3.5 kg, housed as described in Am. […] Physiol, 35: H2033-H2041 and J. Moll Cell.. Cardiol.
(§2) The induction of global myocardial ischaemia was based on a method described as above.

Data set [2] shares this test system. The data set is described as follows: Hyperinsulinaemic euglycaemic glucose clamping (insulin sensitivity), hypercholesterolaemic rabbits. The settings on record: for Glucose infusion rate / M values of hyperinsulinaemic and euglycaemic glucose clamping / synergism (increased effectivity) on glycaemic control: hypercholesterolaemic; for Glucose infusion rate: insulin resistant rabbit; for synergism (increased effectivity) on glycaemic control: drug combined with nitroglycerin; for Insulin sensitivity: percent of means, control = 100. As to the method:
as §1
(§3) To estimate insulin sensitivity and/or insulin resistance, hyperinsulinaemic (100 eU/ml) euglycaemic (5.5 mM/l) glucose clamping was used. The glucose clamping values (M) were established as values of glucose infusion rates expressed in mg/kg/min to maintain blood glucose level at 5.5 mM/l.

The test system of data set [3] is normal conscious rabbits. The data set can be described thus: Ventricular pacing-induced myocardial ischaemia (ST-segment elevation), normal rabbits. The settings on record: for anti-ischaemic effect of combination with nitroglycerin / intracavitary ST-segment elevation: normal conscious rabbits; for anti-ischaemic effect of combination with nitroglycerin: nitroglycerin combined with the drug; for ST-segment elevation: normal rabbit; for intracavitary ST-segment elevation: drug alone. On the procedure: as §1, §2

Data set [4] has as its system streptozotocin diabetic rabbits. The data set can be described thus: Femoral nerve conduction velocity, streptozotocin diabetes. Conditions: for Nerve conduction velocity: femoral “C” fibers, streptozotocin diabetic rabbit; for nerve conduction in “C” fibres: streptozotocin-diabetes model, drug alone, nitroglycerin 12-h patch on vs 12-h patch off over three days. On the procedure:
(§4) The experiments are carried out with adult, male New Zealand white rabbits, weighing 3.0-3.5 kg, housed as described in Am. J. Physiol 1994, Heart Circ. Physiol, 35: H2033-H2041 and J. Moll Cell.. Cardiol. 1997, 29: 1977-1983.
These series of experiments were carried out to verify/exclude sensory neuropathy. Left saphenous nerve conduction velocity was determined as described in Eur J. Pharmacol 1999, 386:83-88.
Streptozotocin (40 mg/kg i.v.) produced a decrease in nerve conduction velocity in femoral “A” and “C” fibres, respectively, as determined 8 weeks after streptozotocin injection. […] The combination of any of these drugs with nitroglycerin yielded an improvement of conduction velocity in streptozotocin-diabetic aminals similar to that seen with nitroglycerin alone.

Data set [5] relates to normal conscious rabbits. The data set is described as follows: Hyperinsulinaemic euglycaemic glucose clamping (insulin sensitivity), normal rabbits. The settings on record: for Glucose infusion rate: normal rabbit; for M values of hyperinsulinaemic and euglycaemic glucose clamping: normal rabbits. As to the method: as §4, §3
Data set [6] deals with hypercholesterolaemic, insulin resistant rabbits. The data set can be described thus: Femoral nerve conduction velocity, hyperlipidaemia-induced insulin resistance. The settings on record: femoral “C” fibers, hypercholesterolaemic, insulin resistant rabbit. As to the method:
as §1
These series of experiments were carried out to verify/exclude sensory neuropathy.

[7] abbreviates: with active patch (nitroglycerin 0.07 mg/kg/h), alone (Control) or with the drug.
Setting [8] is: placebo patch, troglitazon 70 mg/kg p.os, metformin 5 mg/kg i.v., glibenclamide 1 mg/kg i.v., idazoxan 2 mg/kg i.v.
The mark [9] stands for this setting: with active patch (nitroglycerin 0.07 mg/kg/h), alone (Control) or together with the drug, same doses.
Where [10] appears, read: insulin resistant rabbits, in the presence of nitroglycerin and the drug, compared to the placebo patch group.
Where [11] appears, read: placebo patch, troglitazon 70 mg/kg p.os, metformin 5 mg/kg i.v., glibenclamide 1 mg/kg i.v., idazoxan 2 mg/kg i.v., healthy untreated 6.2.
[12] abbreviates: placebo patch, troglitazon 70 mg/kg p.os, metformin 5 mg/kg i.v., glibenclamide 1 mg/kg i.v., idazoxan 2 mg/kg i.v., mean.
Setting [13] is: with active patch (nitroglycerin 0.07 mg/kg/h), alone (Control) or together with the drug, troglitazon 70 mg/kg p.os, metformin 5 mg/kg i.v., glibenclamide 1 mg/kg i.v., idazoxan 2 mg/kg i.v.
The mark [14] stands for this setting: drug alone, troglitazon 70 mg/kg/day p. os over 3 days, metformin 5 mg/kg/day i.v. over 3 days, glibenclamide 1 mg/kg i.v., idazoxan 2 mg/kg i.v.
The mark [15] stands for this setting: metformin 100 mg/kg p.os, ISMN controlled release 5 mg/kg p.os.
[16] abbreviates: nitroglycerin patch 0.07 mg/kg/h, metformin 5 mg/kg i.v., troglitazon 70 mg/kg p.os.

In the case of `c1ccc2c(c1)OCC(C1=NCCN1)O2` (centres unmarked) [Idazoxan, idazoxane], the ST-segment elevation was 2.3 ± 0.50 mV in data set [1] (placebo patch, same doses); 1.8 ± 0.16 mV in data set [1] (setting [7]); 1.4 ± 0.05 mV in data set [3] (setting [8]); 0.8 ± 0.09 mV in data set [3] (setting [7]). The “intracavitary ST-segment elevation / ischaemic changes produced by VOP” value in data set [1] is given as “aggravated ischaemic changes”. The “ventricular extrasystoles on VOP” value in data set [1] (insulin resistant animals, idazoxan 2 mg/kg i.v.) is listed as “VOP induced ventricular extrasystolesin the insulin resistant animals”. Besides, the Glucose infusion rate in data set [2] (setting [8]) came out at 8.500 mg/kg/min; in data set [2] (setting [9]) it was 12.833 mg/kg/min; in data set [5] (setting [12]) it was 14.667 mg/kg/min; in data set [5] (setting [13]), 16.000 mg/kg/min. Moreover, the “M values of hyperinsulinaemic and euglycaemic glucose clamping” value (shortened to “M values”) is recorded as “significantly increased” in data set [2] (setting [10]) and “without effect” in data set [5] (setting [14]). Besides, in data set [2] (insulin resistant rabbits), the “synergism (increased effectivity) on glycaemic control” value is reported as “synergism”. Besides, the “anti-ischaemic effect of combination with nitroglycerin” value (from here on “anti-ischaemic effect of combination”) in data set [3] was “anti-ischaemic effect similar to that produced by nitroglyc erin alone”. Besides, the Nerve conduction velocity in data set [4] (setting [11]) came to 2.8 ± 0.26 dm/s; in data set [4] (setting [7]), 3.4 ± 0.2 dm/s. Further, the “nerve conduction in “C” fibres” value in data set [4] is reported as “Neither troglitazon,nor glibenclamide, idazoxan or metformin produced any effect”.
As for `COc1ccc(Cl)cc1C(=O)NCCc1ccc(S(=O)(=O)NC(=O)NC2CCCCC2)cc1` [Glibenclamide, glibenclamide], the ST-segment elevation in data set [1] (placebo patch, same doses) came to 1.9 ± 0.40 mV; in data set [1] (setting [7]), 1.5 ± 0.13 mV; in data set [3] (setting [8]), 1.4 ± 0.08 mV; in data set [3] (setting [7]), 0.8 ± 0.08 mV. Further, the “intracavitary ST-segment elevation / ischaemic changes produced by VOP” value in data set [1] is listed as “without effect”. Also, the Glucose infusion rate in data set [2] (setting [8]) was 8.833 mg/kg/min; in data set [2] (setting [9]) it was 12.333 mg/kg/min; in data set [5] (setting [12]), 14.667 mg/kg/min; in data set [5] (setting [13]), 16.500 mg/kg/min. Moreover, the “M values” value in data set [2] (setting [10]) is given as “significantly increased”; in data set [5] (setting [14]) it was “without effect”. Moreover, in data set [2] (insulin resistant rabbits), the “synergism (increased effectivity) on glycaemic control” value is “synergism”. Further, in data set [3], the “intracavitary ST-segment elevation” value is “without effect”. For the same compound, in data set [3], the “anti-ischaemic effect of combination” value is on record as “anti-ischaemic effect similar to that produced by nitroglyc erin alone”. The results for the Nerve conduction velocity in data set [4] (setting [11]) and in data set [4] (setting [7]) were 2.9 ± 0.24 dm/s and 3.6 ± 0.2 dm/s, respectively. Also, in data set [4], the “nerve conduction in “C” fibres” value is listed as “Neither troglitazon,nor glibenclamide, idazoxan or metformin produced any effect”.
`CN(C)C(=N)N=C(N)N` [Metformin, metformine]: the ST-segment elevation turned out to be 2.1 ± 0.13 mV in data set [1] (placebo patch, same doses); 1.5 ± 0.08 mV in data set [1] (setting [7]); 1.4 ± 0.08 mV in data set [3] (setting [8]); 0.8 ± 0.10 mV in data set [3] (setting [7]). Moreover, in data set [1], the “intracavitary ST-segment elevation / ischaemic changes produced by VOP” value is reported as “without effect”. For the same compound, the Glucose infusion rate turned out to be 10.833 mg/kg/min in data set [2] (setting [8]); 14.500 mg/kg/min in data set [2] (setting [9]); 11.70 ± 1.0300 mg/kg/min in data set [2] (setting [15]); 15.667 mg/kg/min in data set [5] (setting [12]); 19.833 mg/kg/min in data set [5] (setting [13]); 14.80 ± 0.0800 mg/kg/min in data set [5] (setting [15]). Further, the “M values” value in data set [2] (insulin resistant rabbits vs control, ISMN 5 mg/kg/day (Olicard 40), metformin 100 mg/kg/day p.os over 3 days) is “significant increase”; in data set [2] (setting [10]) it was “significantly increased”; in data set [5] (drug alone vs control, isosorbide-5-mononitrate 1 mg/kg/day (Olicard 40), metformin 100 mg/kg/day p.os over 3 days), “without any effect”; in data set [5] (setting [14]), “without effect”; in data set [5] (in the presence of transdermal nitroglycerin combined with the drug), “significantly increased”; in data set [5] (metformin 100 mg/kg/day p.os in the presence of ISML (ISMN)), “significant increase”. Also, the Insulin sensitivity in data set [2] (ISMN controlled release 5 mg/kg p.os, metformin 100 mg/kg p.os) was 120.6%; in data set [2] (setting [16]), 120.4%. Moreover, in data set [3], the “intracavitary ST-segment elevation” value is “without effect”. The “anti-ischaemic effect of combination” value in data set [3] is “anti-ischaemic effect similar to that produced by nitroglyc erin alone”. Also, the figures for the Nerve conduction velocity in data set [4] (setting [11]) and in data set [4] (setting [7]) were 3.1 ± 0.2 dm/s and 3.6 ± 0.2 dm/s, respectively. Also, in data set [4], the “nerve conduction in “C” fibres” value is given as “Neither troglitazon,nor glibenclamide, idazoxan or metformin produced any effect”.
For `Cc1c(C)c2c(c(C)c1O)CCC(C)(COc1ccc(CC3SC(=O)NC3=O)cc1)O2` (centres unmarked) [Troglitazon, troglitazone], the ST-segment elevation in data set [1] (placebo patch, same doses) is reported as 1.6 ± 0.12 mV; in data set [1] (setting [7]), 1.08 ± 0.10 mV; in data set [3] (setting [8]), 1.1 ± 0.08 mV; in data set [3] (setting [7]), 0.7 ± 0.09 mV. Also, the Glucose infusion rate in data set [2] (setting [8]) turned out to be 11.000 mg/kg/min; in data set [2] (setting [9]), 14.667 mg/kg/min; in data set [5] (setting [12]), 17.167 mg/kg/min; in data set [5] (setting [13]), 19.333 mg/kg/min. For the same compound, in data set [2] (setting [16]), the Insulin sensitivity was found to be 122.2%. Besides, the Nerve conduction velocity in data set [4] (setting [11]) is on record as 3.2 ± 0.3 dm/s; in data set [4] (setting [7]) it was 3.6 ± 0.2 dm/s; in data set [6] (placebo patch, troglitazon 70 mg/kg p.os) it was 4.6 ± 0.4 dm/s; in data set [6] (with active patch (nitroglycerin 0.07 mg/kg/h), alone (Control) or with troglitazon 70 mg/kg p.os) it was 5.9 ± 0.2 dm/s.
